{
  "source": "patent US5607673A",
  "about": "“Purified extract of uvaria brevistipitata and a process for obtaining the purified extract therefor” (C.S.S.A.H.A., Inc., priority 1995, dated 1997)",
  "origin": "cited, not measured here",
  "key": {"[1]": {"tested_on": "P-388 mouse lymphocytic leukemia cells", "conditions": "Lumonadio et al. 1991"}, "Colon-38 adenocarcinoma": {"tested_on": "Colon-38 adenocarcinoma", "conditions": "Lumonadio et al. 1991"}, "[2]": {"tested_on": "multi-drug resistant K 1 strain of plasmodium falciparum", "conditions": "in vitro; Nkunya et al. 1991"}, "[3]": {"tested_on": "NADH-Ubiquinone Reductase (Complex I)", "conditions": "Degli et al. 1994; for Complex I inhibitory constant and protein dependence of titer vs classical inhibitors: bovine submitochondrial particles"}, "tumor": {"tested_on": "tumor", "conditions": "Cole et al. 1976"}, "[4]": {"tested_on": "P-388 lymphocytic leukemia", "conditions": "in vitro; Jolad et al. 1982"}, "[5]": {"conditions": "U.S. Pat. No. 5,229,419"}},
  "data": [
    {"compound": "15-desacetylundulatone", "values": [
      {"measurement": "activity against P-388 cells", "setting": "[1]", "value": "active"},
      {"measurement": "activity against Colon-38 adenocarcinoma", "setting": "Colon-38 adenocarcinoma", "value": "active"}
    ]},
    {"compound": "CC(C)=CC(O)C(O)C(C)=CCCC(C)=CCc1c[nH]c2ccccc12", "note": "(stereo not shown) [8',9'-dihydroxy-3-farnesylindole]", "values": [
      {"measurement": "anti-malarial activity", "setting": "[2]", "value": "most active"}
    ]},
    {"compound": "COc1c(Cc2ccccc2O)c(O)c(Cc2ccccc2O)c(O)c1C(=O)CCc1ccccc1", "note": "[Diuveretin]", "values": [
      {"measurement": "anti-malarial activity", "setting": "[2]", "value": "most active"}
    ]},
    {"compound": "CCCCCCCCCC[C@H](O)[C@H]1CC[C@@H]([C@@H]2CC[C@H]([C@H](O)CCCCCCCCCC[C@@H](O)CC3=C[C@H](C)OC3=O)O2)O1", "note": "[Rolliniastatin-1]", "values": [
      {"measurement": "Complex I inhibitory constant and protein dependence of titer vs classical inhibitors", "setting": "[3]", "value": "more powerful"}
    ]},
    {"compound": "CCCCCCCCCC[C@H](O)[C@H]1CC[C@H]([C@H]2CC[C@H]([C@H](O)CCCCCCCCCCC(O)CC3=C[C@H](C)OC3=O)O2)O1", "note": "(stereo partly shown) [Rolliniastatin-2]", "values": [
      {"measurement": "Complex I inhibitory constant and protein dependence of titer vs classical inhibitors", "setting": "[3]", "value": "more powerful"}
    ]},
    {"compound": "CCCCCC[C@H](O)CCC[C@H](O)[C@H]1CC[C@H]([C@H]2CC[C@H]([C@H](O)CCCCCCCCCCCCC3=C[C@H](C)OC3=O)O2)O1", "note": "[Squamocin]", "values": [
      {"measurement": "Complex I inhibitory constant vs the classical inhibitor", "setting": "[3]", "value": "lower than that of the classical inhibitor"}
    ]},
    {"compound": "COc1cc(O)c(Cc2ccccc2O)c(O)c1C(=O)CCc1ccccc1", "note": "[Uvaratin]", "values": [
      {"measurement": "anti-tumor activity", "setting": "tumor", "value": "shown to have anti-tumor activity"}
    ]},
    {"compound": "COc1cc(O)c(Cc2ccccc2O)c(O)c1C(=O)CCc1ccccc1", "note": "[Uvaretin]", "values": [
      {"measurement": "anti-malarial activity", "setting": "[2]", "value": "most active"}
    ]},
    {"compound": "CCCCCCCCCC[C@H](OC(C)=O)[C@H]1CC[C@H]([C@H]2CC[C@H]([C@H](O)CCCCCCCCCCCCC3=C[C@H](C)OC3=O)O2)O1", "note": "[Uvaricin]", "values": [
      {"measurement": "activity against P-388 lymphocytic leukemia", "setting": "[4]", "value": "demonstrated an in vitro activity"}
    ]},
    {"compound": "CCCCCCCCCC[C@H](O)[C@H]1CC[C@H]([C@H]2CC[C@H]([C@H](O)CCCCCCCCCC[C@@H](O)CC3=C[C@H](C)OC3=O)O2)O1", "note": "[bullatacin]", "values": [
      {"measurement": "antitumor and pesticidal activity", "setting": "[5]", "value": "exhibit antitumor and pesticidal activity"}
    ]},
    {"compound": "CCCCCCCCCC[C@H](O)[C@H]1CC[C@H]([C@H]2CC[C@H]([C@H](O)CCCCCCCCCC[C@@H]3CC(CC(C)=O)C(=O)O3)O2)O1", "note": "(stereo partly shown) [bullatacinone]", "values": [
      {"measurement": "antitumor and pesticidal activity", "setting": "[5]", "value": "exhibit antitumor and pesticidal activity"}
    ]},
    {"compound": "Otivarin", "values": [
      {"measurement": "Complex I inhibitory constant vs the classical inhibitor", "setting": "[3]", "value": "lower than that of the classical inhibitor"}
    ]}
  ]
}
